The source of these data is patent US20220091128A1, “SYSTEM AND METHOD FOR LIGAND THERMAL ANALYSIS” (Portland State University, priority 2019, published 2022).

Holding throughout (format): binding
The subject of one data set is human plasma. As to the kind of experiment: DSC thermograms of plasma with ligand. Conditions: plasma, measured versus calculated composite curves (FIG. 22).
In another data set the target is biotinylated HSA (HSAB) (Homo sapiens, UniProt P02768). Kind of data set: DSC thermograms of biotinylated HSA (HSAB) with ligands. Conditions: HSAB, measured versus calculated composite curves (FIG. 23).
Sequence of biotinylated HSA (HSAB) (P02768 25-609): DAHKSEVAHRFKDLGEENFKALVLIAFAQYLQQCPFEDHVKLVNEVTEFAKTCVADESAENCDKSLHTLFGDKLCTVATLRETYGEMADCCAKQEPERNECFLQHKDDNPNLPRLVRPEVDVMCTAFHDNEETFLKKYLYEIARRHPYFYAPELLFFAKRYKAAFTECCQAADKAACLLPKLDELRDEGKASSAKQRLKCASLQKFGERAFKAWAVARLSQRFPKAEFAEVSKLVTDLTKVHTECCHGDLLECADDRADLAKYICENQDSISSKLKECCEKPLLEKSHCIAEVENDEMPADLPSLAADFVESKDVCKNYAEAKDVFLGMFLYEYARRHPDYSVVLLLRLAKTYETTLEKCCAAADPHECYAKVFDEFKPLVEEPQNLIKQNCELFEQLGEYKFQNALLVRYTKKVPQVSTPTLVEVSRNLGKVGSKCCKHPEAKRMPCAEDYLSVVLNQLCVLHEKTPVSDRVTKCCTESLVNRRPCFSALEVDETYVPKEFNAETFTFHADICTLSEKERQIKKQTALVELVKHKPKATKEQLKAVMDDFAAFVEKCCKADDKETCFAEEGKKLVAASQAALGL
The next data set deals with HSA (Homo sapiens, UniProt P02768). As to the kind of experiment: Capture of DNA from plasma with biotinylated HSA capture reagent, gel electrophoresis. On the set-up: purchased Sigma Aldrich (HSA); biotinylated in house (Thermo Fisher Scientific 21217); Pierce streptavidin magnetic beads (Thermo Scientific 88816). Conditions: salt washes. On the procedure:
Gel electrophoresis: DNA samples collected at different steps of the capture procedure were analyzed by electrophoresis on polyacrylamide gels. All electrophoresis experiments were performed using Lonza PAGEr™ Gold Precast Gels: Gradient, 10×10 cm, 8-16%, purchased from Thermo-Fisher (BMA59519). Each supernatant fraction collected at different steps of the capture procedure were suspended in TAE running buffer and analyzed. In a typical experiment, 25 μL total volume of solution was loaded per lane (well capacity). Gels were run in TAE buffer (40 mM Tris, 20 mM Acetic Acid, 0.4 mM EDTA) at a constant current of 20 mA for approximately three hours. Gels for analysis of DNA were stained with Stains-all solution, destained in water, removed, visualized and imaged on a flat-bed scanner. Gels for analysis of hot labeled cy5′-25MER DNA were visualized using a Typhoon™ Trio+phosphorimager (GE Healthcare).
Capture strategy: In some examples, biotinylated HSA acts as an affinity reagent for ligands in plasma that bind HSA. In the capture step, streptavidin coated magnetic beads are attached to biotinylated HSA then inserted into plasma. With application of a magnetic field, ligand-bound biotinylated HSA is retrieved. Captured HSA contains bound plasma components (ligands).
Ligand recovery: In the capture process, HSA-bound components are washed off the capture reagent. […]

Sequence of HSA (P02768 25-609): as above

For the substance “ssDNA: 25-base single strand DNA 25R, 5′-CGACATGACCTTGTCGCTAACATCC-3′ (DNA CGACATGACCTTGTCGCTAACATCC; DNA, backbone and methylation of C not given here)”, the “interaction judged by effect on the thermogram” value in the data set on human plasma and with biotinylated HSA (HSAB) was “interact very weakly” in each case. Moreover, the “binding to HSA by gel analysis” value in the data set with HSA was “detectable, but weak”.
